# Source: patent US20050113405A1, “Methods of treating rheumatoid arthritis using NF-kB inhibitors” (Wyeth, priority 2003, published 2005)
# Key:
# HLA-B27 transgenic rats [1] = assay: HLA-B27 transgenic rat, stool and clinical joint scores; assay type: in vivo; settings: sub-optimal dose 0.6 mg/kg
# Description: (§1) The HLA-B27 transgenic rat expresses two human proteins (HLA-B27 and β2 microglobulin) that, over time, provoke a misdirected immune response. This model represents a chronic intestinal inflammation with associated arthritis induced by the human class I major histocompatibility allele HLA-B27 that is strongly associated with human disease. […] If the disease is allowed to progress, they begin to show symptoms of arthritis. […] Histological scoring of synovitis and cartilage damage in the tarsal joints after 29 days of treatment was also conducted.
# HLA-B27 transgenic rats [2] = assay: HLA-B27 transgenic rat, histological scoring of synovitis and cartilage damage in tarsal joints; assay type: in vivo; settings: 0.6 mg/kg orally for 29 days
# Description: as §1
# [3] = test system: Lewis rats with adjuvant-induced arthritis; assay: Adjuvant-induced arthritis in Lewis rats, histological scoring of tarsal joints (Mankin and synovitis scores); assay type: in vivo, rat; settings: for Tidemark Integrity (0-1) / Cartilage Cells (0-3) / Cartilage Structure (0-6) / Fibroplasia (0-3) / Inflammatory Cells (0-3) / Pannus (0-2) / Saffranin-O/Fast Green Staining (0-4) / Synovial Structure (0-3) / Total Mankin Score (0-14) / Total Synovitis Score (0-10): tarsal joints; for Cartilage Cells (0-3) / Cartilage Structure (0-6) / Fibroplasia (0-3) / Inflammatory Cells (0-3) / Pannus (0-2) / Saffranin-O/Fast Green Staining (0-4) / Synovial Structure (0-3) / Total Mankin Score (0-14) / Total Synovitis Score (0-10): mean ± SD
# Description: Statistical analysis was performed using Abacus Concepts Super ANOVA. (Abacus Concepts, Inc., Berkeley, Calif.). All of the parameters of interest were subjected to Analysis of Variance with Duncan's new multiple range post hoc testing between groups. Data are expressed throughout as mean±standard deviation (SD), and differences were deemed significant if p<0.05.
# At the end of the study the rats were euthanized with CO2, hindlimbs were removed at necropsy and fixed in 10% buffered formalin, and the tarsal joints were decalcified and embedded in paraffin. Histologic sections will be stained with Hematoxylin and Eosin or Saffranin O—Fast Green stain.
# Slides will be coded so that the examiner will be blinded to the treatment groups. […] Articular cartilage and bone will be evaluated using Mankin's histological grading system (method described by Mankin H J, Dorfman, H:Lippieo L. L. Zarins. 1971. Biochemical and metabolic abnormalities in articular cartilage from osteoarthritic human hip. See J. Bone Joint Surg (AM) 53A:152-153) (Table 6).
# BALB/c mice = assay: Collagen induced arthritis model (anti-type II collagen mAbs plus LPS), hind paw volume; assay type: in vivo, mouse; settings: 2.5 mg/kg orally once daily; over the course of the experiment
# Description: Compounds are evaluated in BALB/c mice, 6-8 weeks of age, in which arthritis is induced by monoclonal antibodies raised against type II collagen, plus lipopolysaccharide (LPS). The animals were administered intravenously with a combination of 4 different mAbs totaling 4 mg/mouse on day 0, and followed by intravenous 25 μg of LPS 72 hours later (day 3). From day 3, one hour after LPS application, tested compounds are give orally once daily for 15 days. For each animal, increase in volume of both hind paws is measured using a plethysmometer with water cell (12 mm diameter) on days 0, 5, 7, 10, 14 and 17. Percent inhibition of increase in volume is calculated. Reduction of edema in the hind paws by 30% or more is considered significant.
# [4] = test system: Lewis rats with adjuvant-induced arthritis; assay: Adjuvant-induced arthritis in Lewis rats, daily joint scores (hindpaw erythema and swelling); assay type: in vivo, rat
# [5] = 0.1 mg/kg orally for 2 weeks from day 8 after CFA
# [6] = 0.3 mg/kg orally for 2 weeks from day 8 after CFA
# [7] = 1 mg/kg orally for 2 weeks from day 8 after CFA
smiles,measurement,setting,value
C[C@]12C=CC(=O)C=C1CC[C@@H]1[C@@H]2[C@@H](O)C[C@@]2(C)[C@H]1CC[C@]2(O)C(=O)CO [Prednisolone],improvement in the joint scores,HLA-B27 transgenic rats [1],50%
same,Tidemark Integrity (0-2),HLA-B27 transgenic rats [2],0
same,Cartilage Cells,HLA-B27 transgenic rats [2]; mean ± SD,2.20 ± 0.45
same,Cartilage Structure (0-6),HLA-B27 transgenic rats [2]; mean ± SD,3.40 ± 0.55
same,Fibroplasia (0-3),HLA-B27 transgenic rats [2]; mean ± SD,2.00 ± 0.71
same,Inflammatory Cells (0-3),HLA-B27 transgenic rats [2]; mean ± SD,2.00 ± 0.00
same,Pannus (0-2),HLA-B27 transgenic rats [2]; mean ± SD,1.60 ± 0.89
same,Safranin-O/Fast Green Staining (0-4),HLA-B27 transgenic rats [2]; mean ± SD,3.00 ± 0.00
same,Synovial Structure (0-3),HLA-B27 transgenic rats [2]; mean ± SD,2.40 ± 0.55
same,Total Mankin Score,HLA-B27 transgenic rats [2]; mean ± SD,8.60 ± 0.89
same,Total Synovitis Score (0-11),HLA-B27 transgenic rats [2]; mean ± SD,8.00 ± 1.87
"COc1cc(OC)cc(N2CCN(C(=O)[C@](C)(C#N)[C@H](c3ccccc3OC)c3cccc4ccccc34)CC2)c1 [Example 4, (S)-3-[4-(3,5-dimethoxyphenyl)piperazin-1-yl]-2-[(S)-(2-methoxyphenyl)(1-naphthyl)methyl]-2-methyl-3-oxopropanenitrile]",melting point,,186 to 188 °C
"C[C@@H]1c2cc(F)ccc2-c2ccccc2N1S(=O)(=O)c1ccc(O)cc1 (stereo in doubt) [Example 3, 4-[(8-Fluoro-6-methylphenanthridin-5(6H)-yl)sulfonyl]phenol]",melting point,,188 °C
same,Tidemark Integrity (0-1),[3]; [5],0
same,Cartilage Cells (0-3),[3]; [5],1.92 ± 0.21
same,Cartilage Structure (0-6),[3]; [5],2.33 ± 0.68
same,Fibroplasia (0-3),[3]; [5],1.75 ± 0.42
same,Inflammatory Cells (0-3),[3]; [5],1.83 ± 0.52
same,Pannus (0-2),[3]; [5],1.50 ± 0.84
same,Saffranin-O/Fast Green Staining (0-4),[3]; [5],2.42 ± 0.67
same,Synovial Structure (0-3),[3]; [5],2.33 ± 0.75
same,Total Mankin Score (0-14),[3]; [5],6.83 ± 1.25
same,Total Synovitis Score (0-10),[3]; [5],7.42 ± 2.25
same,Tidemark Integrity (0-1),[3]; [6],0
same,Cartilage Cells (0-3),[3]; [6],1.50 ± 0.32
same,Cartilage Structure (0-6),[3]; [6],1.75 ± 0.42
same,Fibroplasia (0-3),[3]; [6],1.67 ± 0.26*t
same,Inflammatory Cells (0-3),[3]; [6],1.25 ± 0.27
same,Pannus (0-2),[3]; [6],0.50 ± 0.84
same,Saffranin-O/Fast Green Staining (0-4),[3]; [6],2.17 ± 0.26
same,Synovial Structure (0-3),[3]; [6],1.58 ± 0.38
same,Total Mankin Score (0-14),[3]; [6],5.42 ± 0.74*t
same,Total Synovitis Score (0-10),[3]; [6],5.00 ± 1.30*#t
same,Tidemark Integrity (0-1),[3]; [7],0
same,Cartilage Cells (0-3),[3]; [7],1.17 ± 0.26*t
same,Cartilage Structure (0-6),[3]; [7],1.25 ± 0.27
same,Fibroplasia (0-3),[3]; [7],1.33 ± 0.41*t
same,Inflammatory Cells (0-3),[3]; [7],1.17 ± 0.26
same,Pannus (0-2),[3]; [7],0.25 ± 0.42
same,Saffranin-O/Fast Green Staining (0-4),[3]; [7],2.17 ± 0.26
same,Synovial Structure (0-3),[3]; [7],1.42 ± 0.38
same,Total Mankin Score (0-14),[3]; [7],4.58 ± 0.74*t
same,Total Synovitis Score (0-10),[3]; [7],4.17 ± 1.21*#t
same,overall synovitis and cartilage scores,"[3]; all concentrations tested (down to 0.1 mg/kg), oral",significantly improved
same,inhibition of paw edema (increase in hind paw volume),BALB/c mice,> 30%
same,"joint scores (paw swelling and redness, maximal score per day 12)","[4]; Day 8, 0.1 mg/kg orally each day from Day 8 after adjuvant",11.3
same,"joint scores (paw swelling and redness, maximal score per day 12)","[4]; Day 8, 0.3 mg/kg orally each day from Day 8 after adjuvant",11.5
same,"joint scores (paw swelling and redness, maximal score per day 12)","[4]; Day 8, 1 mg/kg orally each day from Day 8 after adjuvant",11.3
same,"joint scores (paw swelling and redness, maximal score per day 12)","[4]; Day 9, 0.1 mg/kg orally each day from Day 8 after adjuvant",10.7
same,"joint scores (paw swelling and redness, maximal score per day 12)","[4]; Day 9, 0.3 mg/kg orally each day from Day 8 after adjuvant",9.8
same,"joint scores (paw swelling and redness, maximal score per day 12)","[4]; Day 9, 1 mg/kg orally each day from Day 8 after adjuvant",8.8
same,"joint scores (paw swelling and redness, maximal score per day 12)","[4]; Day 10, 0.1 mg/kg orally each day from Day 8 after adjuvant",9.3
same,"joint scores (paw swelling and redness, maximal score per day 12)","[4]; Day 10, 0.3 mg/kg orally each day from Day 8 after adjuvant",7.3
same,"joint scores (paw swelling and redness, maximal score per day 12)","[4]; Day 10, 1 mg/kg orally each day from Day 8 after adjuvant",7
same,"joint scores (paw swelling and redness, maximal score per day 12)","[4]; Day 11, 0.1 mg/kg orally each day from Day 8 after adjuvant",9.7
same,"joint scores (paw swelling and redness, maximal score per day 12)","[4]; Day 11, 0.3 mg/kg orally each day from Day 8 after adjuvant",7
same,"joint scores (paw swelling and redness, maximal score per day 12)","[4]; Day 11, 1 mg/kg orally each day from Day 8 after adjuvant",6
same,"joint scores (paw swelling and redness, maximal score per day 12)","[4]; Day 12, 0.1 mg/kg orally each day from Day 8 after adjuvant",10
same,"joint scores (paw swelling and redness, maximal score per day 12)","[4]; Day 12, 0.3 mg/kg orally each day from Day 8 after adjuvant",6.7
same,"joint scores (paw swelling and redness, maximal score per day 12)","[4]; Day 12, 1 mg/kg orally each day from Day 8 after adjuvant",5
same,"joint scores (paw swelling and redness, maximal score per day 12)","[4]; Day 13, 0.1 mg/kg orally each day from Day 8 after adjuvant",4.2
same,"joint scores (paw swelling and redness, maximal score per day 12)","[4]; Day 13, 0.3 mg/kg orally each day from Day 8 after adjuvant",3.7
same,"joint scores (paw swelling and redness, maximal score per day 12)","[4]; Day 13, 1 mg/kg orally each day from Day 8 after adjuvant",1.7
same,"joint scores (paw swelling and redness, maximal score per day 12)","[4]; Day 14, 0.1 mg/kg orally each day from Day 8 after adjuvant",3.5
same,"joint scores (paw swelling and redness, maximal score per day 12)","[4]; Day 14, 0.3 mg/kg orally each day from Day 8 after adjuvant",3
same,"joint scores (paw swelling and redness, maximal score per day 12)","[4]; Day 14, 1 mg/kg orally each day from Day 8 after adjuvant",1.3
same,"joint scores (paw swelling and redness, maximal score per day 12)","[4]; Day 15, 0.1 mg/kg orally each day from Day 8 after adjuvant",3.5
same,"joint scores (paw swelling and redness, maximal score per day 12)","[4]; Day 15, 0.3 mg/kg orally each day from Day 8 after adjuvant",3.7
same,"joint scores (paw swelling and redness, maximal score per day 12)","[4]; Day 15, 1 mg/kg orally each day from Day 8 after adjuvant",1.3
same,"joint scores (paw swelling and redness, maximal score per day 12)","[4]; Day 16, 0.1 mg/kg orally each day from Day 8 after adjuvant",3.3
same,"joint scores (paw swelling and redness, maximal score per day 12)","[4]; Day 16, 0.3 mg/kg orally each day from Day 8 after adjuvant",2.3
same,"joint scores (paw swelling and redness, maximal score per day 12)","[4]; Day 16, 1 mg/kg orally each day from Day 8 after adjuvant",1.2
same,"joint scores (paw swelling and redness, maximal score per day 12)","[4]; Day 17, 0.1 mg/kg orally each day from Day 8 after adjuvant",3.3
same,"joint scores (paw swelling and redness, maximal score per day 12)","[4]; Day 17, 0.3 mg/kg orally each day from Day 8 after adjuvant",2.3
same,"joint scores (paw swelling and redness, maximal score per day 12)","[4]; Day 17, 1 mg/kg orally each day from Day 8 after adjuvant",1.2
same,"joint scores (paw swelling and redness, maximal score per day 12)","[4]; Day 18, 0.1 mg/kg orally each day from Day 8 after adjuvant",3.3
same,"joint scores (paw swelling and redness, maximal score per day 12)","[4]; Day 18, 0.3 mg/kg orally each day from Day 8 after adjuvant",2.3
same,"joint scores (paw swelling and redness, maximal score per day 12)","[4]; Day 18, 1 mg/kg orally each day from Day 8 after adjuvant",1.2
same,"joint scores (paw swelling and redness, maximal score per day 12)","[4]; Day 19, 0.1 mg/kg orally each day from Day 8 after adjuvant",3
same,"joint scores (paw swelling and redness, maximal score per day 12)","[4]; Day 19, 0.3 mg/kg orally each day from Day 8 after adjuvant",2
same,"joint scores (paw swelling and redness, maximal score per day 12)","[4]; Day 19, 1 mg/kg orally each day from Day 8 after adjuvant",1.2
same,"joint scores (paw swelling and redness, maximal score per day 12)","[4]; Day 20, 0.1 mg/kg orally each day from Day 8 after adjuvant",2.8
same,"joint scores (paw swelling and redness, maximal score per day 12)","[4]; Day 20, 0.3 mg/kg orally each day from Day 8 after adjuvant",2
same,"joint scores (paw swelling and redness, maximal score per day 12)","[4]; Day 20, 1 mg/kg orally each day from Day 8 after adjuvant",1.2
same,"joint scores (paw swelling and redness, maximal score per day 12)","[4]; Day 21, 0.1 mg/kg orally each day from Day 8 after adjuvant",2.5
same,"joint scores (paw swelling and redness, maximal score per day 12)","[4]; Day 21, 0.3 mg/kg orally each day from Day 8 after adjuvant",1.7
same,"joint scores (paw swelling and redness, maximal score per day 12)","[4]; Day 21, 1 mg/kg orally each day from Day 8 after adjuvant",1.2
same,"joint scores (paw swelling and redness, maximal score per day 12)","[4]; Day 22, 0.1 mg/kg orally each day from Day 8 after adjuvant",2.5
same,"joint scores (paw swelling and redness, maximal score per day 12)","[4]; Day 22, 0.3 mg/kg orally each day from Day 8 after adjuvant",1.7
same,"joint scores (paw swelling and redness, maximal score per day 12)","[4]; Day 22, 1 mg/kg orally each day from Day 8 after adjuvant",1.2
same,"joint scores (paw swelling and redness, maximal score per day 12)","[4]; Day 23, 0.1 mg/kg orally each day from Day 8 after adjuvant",1.2
same,"joint scores (paw swelling and redness, maximal score per day 12)","[4]; Day 23, 0.3 mg/kg orally each day from Day 8 after adjuvant",1
same,"joint scores (paw swelling and redness, maximal score per day 12)","[4]; Day 23, 1 mg/kg orally each day from Day 8 after adjuvant",1
same,"joint scores (paw swelling and redness, maximal score per day 12)","[4]; Day 24, 0.1 mg/kg orally each day from Day 8 after adjuvant",1.3
same,"joint scores (paw swelling and redness, maximal score per day 12)","[4]; Day 24, 0.3 mg/kg orally each day from Day 8 after adjuvant",1.3
same,"joint scores (paw swelling and redness, maximal score per day 12)","[4]; Day 24, 1 mg/kg orally each day from Day 8 after adjuvant",0.8
